Residue numbers refer to the chain shown, from its start. Names and notes keep the numbering of the source.
T1: EB1n (EB1 N-terminus, residues 1-151) (Homo sapiens, UniProt Q15691)
T1 construct: gene MAPRE1; N-terminal fragment 1-151 containing CH domain (1-130); pET3d, E. coli BL21(DE3), untagged, cation exchange; mainly monomer
T1 sequence (Q15691 1-151): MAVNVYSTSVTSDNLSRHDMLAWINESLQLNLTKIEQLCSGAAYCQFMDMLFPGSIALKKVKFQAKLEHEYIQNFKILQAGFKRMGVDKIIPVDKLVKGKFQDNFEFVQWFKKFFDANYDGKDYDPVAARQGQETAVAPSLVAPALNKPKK

T2: full length EB1 (His-tagged) (Homo sapiens, UniProt Q15691)
T2 construct: gene MAPRE1; full length 268 residues, His-tagged, recombinant, purified as in authors' earlier work; dimer
T2 sequence (Q15691 1-268): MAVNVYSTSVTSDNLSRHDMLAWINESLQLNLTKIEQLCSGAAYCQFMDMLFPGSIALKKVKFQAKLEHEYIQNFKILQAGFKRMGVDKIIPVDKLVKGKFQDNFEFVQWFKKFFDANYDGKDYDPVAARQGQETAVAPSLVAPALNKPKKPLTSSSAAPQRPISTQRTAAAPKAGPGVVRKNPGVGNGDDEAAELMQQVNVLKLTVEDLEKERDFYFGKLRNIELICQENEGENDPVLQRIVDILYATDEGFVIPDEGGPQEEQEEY

B1: EB1 R17A H18A-GFP (natural protein, human, UniProt Q15691 1-268, looked up)
chain: T2 sequence (Q15691 1-268) with R17A, H18A
notes: EB1, human, full-length cDNA with R17A and H18A; Made with the WT EB1-GFP pET22b eGFP plasmid as template; also called R17A H18A EB1-GFP; mutant EB1-GFP; source: E. coli BL21 (DE3), purified (Ni-NTA)

Tests used:
[1] = target: T1, EB1n (EB1 N-terminus, residues 1-151); experiment: isothermal titration calorimetry; format: binding; conditions: 80 mM PIPES, 1 mM EGTA, 1 mM MgCl2, pH 6.9, 25 °C; N fitted freely; range over three experiments, printed jointly for EB1n and full length; noisy data; NMR in other buffers gives mM Kd
[2] = target: T2, full length EB1 (His-tagged); experiment: isothermal titration calorimetry; format: binding; conditions: 80 mM PIPES, 1 mM EGTA, 1 mM MgCl2, pH 6.9, 25 °C; N fixed at 2; range over three experiments, printed jointly for EB1n and full length; saturation incomplete
[3] = target: Rhodamine labeled microtubules polymerized with GTPγS (UniProt P02550 1-451, rhodamine on part of the tubulin (3 µM rhodamine-labeled tubulin with 40 µM tubulin)); which chain carries it is not stated | rhodamine on part of the tubulin (3 µM rhodamine-labeled tubulin with 40 …); experiment: confocal fluorescence imaging of purified EB1-GFP on microtubules held on coverslips; rhodamine microtubules (GTPγS) on poly-lysine coverslips, washed free of GTPγS; 10 µM EB1-GFP protein added, 10 min, 37 °C, BRB80 pH 6.9; fixed with 1% glutaraldehyde; GFP intensity per pixel along microtubules; conditions: both partners purified
[4] = target: Microtubules polymerized from tubulin with GTPγS (UniProt P02550 1-451); experiment: binding to microtubules held on coverslips, wash, SDS-PAGE of the bound protein; microtubules (40 µM tubulin, GTPγS) on poly-lysine coverslips, washed; 10 µM EB1-GFP protein added, 10 min at 37 °C (15 min in the legend), BRB80; unbound protein washed off; Coomassie bands normalized against tubulin; the paper calls it sedimentation; conditions: both partners purified

Kd [1]	Kd [2]	fold increase of GFP intensity per pixel on microtubules against wild-type EB1-GFP [3]	fold amount bound to microtubules against wild-type EB1 [4]	Molecule
~10 to ~30 µM	~10 to ~30 µM	–	–	Nc1nc2c(ncn2[C@@H]2O[C@H](COP(=O)(O)OP(=O)(O)OP(=O)(O)O)[C@@H](O)[C@H]2O)c(=O)[nH]1 [GTP]
–	–	~2 fold	~1.5 fold	B1
